Test results published in article PMC9161616, “A first-in-human phase 1/2 study of FGF401 and combination of FGF401 with spartalizumab in patients with hepatocellular carcinoma or biomarker-selected solid tumors” (Journal of Experimental & Clinical Cancer Research : CR, 2022).

Experiments:
[1] = test system: patients with HCC or other solid tumors positive for FGFR4 and KLB; assay: Phase 1 dose escalation, DLTs, MTD/RP2D, FGF401 single agent; format: in vivo
Procedure: Phase 1: Escalation with overdose control (EWOC) principle based on the observed dose-limiting toxicities (DLTs) was employed while escalating dosage starting with 50 mg until the lowest of MTD and/or RP2D was met. Sample size to have reasonable operating characteristics was estimated to be a minimum of 21 evaluable patients.
To further assess the effect of food uptake on FGF401, additional patients were recruited upon observance of clinical activity to receive doses under fed condition, in parallel with the fasted dose escalation. The starting dose was estimated at 80 mg qd. Principles of dose escalation aligned with those under fasted condition.
(§1) The primary endpoint for the phase 1 parts was the incidence of DLTs evaluated. The probability of DLTs during the evaluation period was estimated for patients in the dose determining set (DDS) for each treatment arm, FGF401 single agent and FGF401 + spartalizumab combination, to estimate respective MTDs. DDS for the phase 1 single agent or combination comprised safety set patients who either experienced a DLT or had confirmation by both the sponsor and investigators that no DLT occurred during the first cycle, C1 (first 2 cycles: C1, C2) based on at least 66% of planned doses administered in C1 (C1 and C2) with a minimum of 21 (42) days of observation following the first dose. For phase 2, the primary efficacy endpoint to investigate the antitumor activity of FGF401 included time to tumor progression assessed in groups 1 and 2, and overall response rate (ORR) in group 3 based on local assessment per Response Evaluation Criteria in Solid Tumors (RECIST) v1.1.
For the single-agent phase 1 primary outcome, an extended Bayesian hierarchical logistical regression model (BHLRM) was applied to estimate the relationship between dose and stratum (fasted vs fed) specific probability of a patient experiencing a DLT. […]

[2] = test system: HCC or other solid tumors expressing FGFR4 and KLB; assay: Antitumor activity per RECIST v1.1, FGF401 single agent; format: in vivo, human
Text: as §1
Antitumor activity was locally assessed as per RECIST v1.1 and immune-related response criteria (irRC) (only for combination arm) and evaluated using the following endpoints: best overall response, overall response rate (ORR), disease control rate (DCR), time to tumor progression, and overall survival (OS). Estimation of best overall response (BOR) was based on assessments collected no later than 30 days after the last study treatment administration date for RECIST v1.1 and 150 days for irRC.
The primary and secondary efficacy outcomes were analyzed in the full analysis set according to the assigned treatment stratified by study group, which we defined as a subgroup (fast/fed, group 1/2/3) of patients who were administered with similar dose levels on a given treatment arm and phase. The results have been presented as per RECIST v1.1. The number of patients having BOR was provided along with ORR and DCR with 95% exact binomial CIs (Clopper-Pearson). Waterfall plots for the phase 1 parts depicted the best percentage change from baseline in sum of longest diameters (SOD). […] The estimate at a given time point was the estimated probability that a patient would remain event free up to that time point. A positive trend regarding the activity of FGF401 in groups 1 and 2 was concluded if the observed lower limit of their respective 90% CI was no less than their expected median TTPs of 1.5 months and 2.2 months estimated in the absence of FGF401. KM plots were also used to estimate OS rate with one-sided 95% CI at 3 months, 5 months, 7 months, and 9 months for single agent phase 1 overall and phase 2: groups 1, 2; for single agent phase 2 – group 3, OS, and progression free survival (PFS) were calculated regardless of RP2D but for overall tumor type.
Exploratory biomarker analyses were conducted using full analysis set to assess efficacy and FGF19 signaling inhibition associated with FGF401. The best tumor percentage change from baseline as per RECIST v1.1 were investigated by FGF19 status (positive/negative) as determined through RT-qPCR and IHC assay. An evaluable RT-qPCR sample was considered FGF19+ if mean threshold cycle for FGF19 was ≤35, and FGF19- otherwise. Among the patients with evaluable IHC assay samples, those who had % cellular positivity > 0 were considered FGF19 + .

[3] = single agent, phase I and phase II in total

For `COCCNc1cc(NC(=O)N2CCCc3cc(CN4CCN(C)CC4=O)c(C=O)nc32)ncc1C#N` [FGF401, roblitinib], the “DLT: increase in blood bilirubin” value ([1]; human, in vivo, 21 days) was 2 n, the “DLT: increase in transaminases” value ([1]; human, in vivo, 21 days) was 4 n and the MTD ([1]; single agent, 50 to 150 mg) was “not reached”. For the same compound, the “median TTP” value ([2]; 120 mg, phase 1, fed and fasted combined, N = 45) was 2.63 months, the “median OS” value ([2]; 120 mg, phase 1, fed and fasted combined, n/N = 38/45) was 5.72 months and the “patients reporting PR at RP2D in phase 2” value ([2]; all in patients with HCC) was 4 patients. The “response by FGF19 IHC status” value ([2]; patients with HCC, phase 1/2, 27 FGF19 positive, 33 negative) was “trend for better response among the FGF19 IHC-positive patients”, the “responses in patients with other tumor types” value ([2]; phase 1) was “no responses” and the “partial response (PR)” value ([2]; phase 1, 59 evaluable patients with HCC, 80 mg fasted, 80 mg fed, 150 mg fasted, each) was 3 patients. The “complete response (CR)” value ([2]; phase 1, 59 evaluable patients with HCC, 120 mg, fasted) was 1 patient, the “probability estimate of remaining event free (90% CI) at 9 months” value ([2]; phase 2 group 1) was 30.4 [19.1, 100] and the PR ([2]; phase 2 group 1 (n = 28), 120 mg qd) was 2 patients. The “probability estimate of remaining event free (90% CI) at 9 months” value ([2]; phase 2 group 2) was 61.5 (49.8, 100), the PR ([2]; phase 2 group 2 (n = 31), 120 mg qd) was 2 patients and the “probability estimate of remaining event free (90% CI) at 9 months” value ([2]; phase 2 group 3) was 24.7 [12.6, 100]. The CR [2, 3] was 1 patients, the PR [2, 3] was 7 patients and the “patients with objective responses” value [2, 3] was 8 patients. The “association of FGF19 transcript level (RT-qPCR) with response” value ([2]; single-agent arm, prescreening biopsy) was “no clear association with response”.
